Results from patent US20260294946A1, “METHOD TO REDUCE FEED CONVERSION RATIO IN A FARMED ANIMAL” (Inbiose N.V., priority 2023, published 2026).

What was measured:
[1] = Trial in calves: live weight, average daily gain, feed intake, feed conversion ratio (12 weeks); type: in vivo, Holstein Friesian calves
Source text: Holstein Friesian calves (2- to 3-week-old, 95% male) were transported from different farms to the experimental facility of Denkavit (Voorthuizen, The Netherlands) where the animals were reared. The calves were randomly and gender-equally divided in four groups based on experimental calf milk replacer (CMR): group A (placebo—standard CMR powder of the farm), group B (standard CMR powder supplemented with 0.005% dry wt. 2′FL), group C (standard CMR powder supplemented with 0.025% dry wt. 3′SL and 0.015% w/w 6′SL) and group D (standard CMR powder supplemented with 0.005% dry wt. 2′FL, 0.025% dry wt. 3′SL and 0.015% dry wt. 6′SL). The calf milk replacer was administered as a liquid to the calves (water was added to the CMR powder to obtain 150 grams CMR powder per liter liquid CMR). Each group involved 100 calves, assigned into four rows (25 calves per row) of two compartment blocks. Each row contained five pens, where four to six calves were living in one pen.
Starting from the day of arrival, calves received standard calf milk replacer (CMR) during a period of 9 weeks. Group A only received the CMR, while the CMR supplied to groups B, C and D was supplemented with MMOs as outlined in the section titled “Animals.” Calf starter (concentrates) and straw were introduced gradually from day 6 till the end of the experiment (12 weeks) while calves had access to corn silage at week 11 and 12. Feeds were provided ad libitum to calves twice a day in the morning and evening and were daily recorded based on rows (concentrates, straw, corn silage) or groups (CMR) consumption.
Calves were followed up by the farm staff since arrival until 12 weeks. Fecal consistency in scale 1-4 (Larson et al., 1977, J. Dairy Science, 60(6): p. 989-991) was recorded daily for the first ten days since arrival. Number of mortalities and signs of adverse effects were registered daily. The animals were treated prophylactically or metaphylactically (herd treatment) with 1 g oxytetracycline 100% (at day 4), 0.5 g Doxylin 50% WSP and 0.8 g Bromhexine 2% (at day 13), and 3.1 ml Tilmicosol 250 mg/ml (at day 24) to prevent and/or treat acute lung inflammation. Individual treatments were followed by remarks of the farm staff and diagnostics of farm veterinary practitioners. Disease incidences and medicinal usage based on individual treatments were recorded to compare between treatment groups. The incidence of diarrhea was 0% in all groups at the start of the study, and 1% (%; group A), 0% (group B), 1% (group C) and 2% (group D) after 12 weeks. Live weight of the animals was monitored at arrival (d1), two weeks (W2), six weeks (W6), ten weeks (W10) and 12 weeks (W12) since arrival. Feed conversion ratio (FCR) of each period was computed based on the input of daily weight gain and daily feed intake.
Prior to analysis, the data of live weight and FCR were checked for outliers. A data point was considered an outlier if it could reasonably be expected that observed trail results were due to other factors than the treatment, e.g., due to sickness. An ANCOVA model as below was used to analyze the live weight data (R version 4.1.2.).
Differences among means with P<0.05 were accepted as significant. Differences among means with 0.05<P<0.10 were accepted as tendency. Multiple comparisons were done with Tukey.
Other performance data were analyzed using a mixed linear model using treatments as fixed and Row as random term using 1me in the nlme package.

[2] = tested on: Prevotella copri; assay: Fecal microbiota of calves, shotgun metagenomics; type: in vivo; conditions: T1 (W 5), versus placebo calves, score = −log 10(pvalue)*sign(coef)
Method: (§1) Stools were collected directly from recta of six calves in one selected pen upon rectal inducing at day 29 (W5) and day 57 (W9). The fecal samples (approximately 1 g) were immediately snap frozen using isopropanol-dried ice bath for 1 minute before they were transferred onto dried ice for transportation to a long-term storage at −80° C.
(§2) Total fecal DNA was extracted from 200 mg feces while total upper respiratory tract microbial DNA were extracted from 1 ml DNA shield reagent containing the nasal pharyngeal swab. ZymoBIOMICS™ DNA miniprep kit (Zymo Research) in combination with a FASTPREP® 24 device was used to extract and purify the microbial DNA as instructed by the manufacturer. Purified total DNA were eluted in 100 μl and were quickly checked for the concentration and quality using Nanodrop (Implen NANOPHOTOMETER®) before storage at −20° C.
(§3) Total DNA were submitted to Eurofins (GATC, Germany) to perform metagenomics using their INVIEW metagenome platform. Briefly, total DNA were first fragmented, then ligated with adapter for library preparation. The sequencing was done using Illumina paired end sequencing technology (2×150 bp), guaranteed for 20 million read pairs (40 million reads). Reads were quality-checked with fastqc (bioinformatics.babraham.ac. uk/projects/fastqc/) and trimmed with Trimmomatic (Bolger et al., 2014, Bioinformatics, 30(15): p. 2114-2120; usadellab.org/cms/?page=trimmomatic). Bovine reads were removed by mapping to the cow reference database Bos_taurus_UMD_3.1.1 using BMTagger (bioconda.github.io/recipes/bmtagger/README.html). Profiling of the taxonomic composition and the functional potential of microbial communities was done using Metaphlan (Beghini et al., 2021, Elife 10: e65088; /huttenhower.sph.harvard.edu/humann/).
(§4) Microbiome data was normalized in cpm (counts per million).
(§5) The treatment effect of MMOs in the microbiome data was evaluated per timepoint with Maaslin2 (Mallick et al., 2021, PLoS Computational Biology 17(11): e1009442) using AST transformation and adding compartment as fixed effect. For visualization in the tables a score was calculated equal to −log 10(pvalue)*sign(coef). Spearman correlation was used to evaluate the relation between microbiome and FCR using the cor.test function in the stats package in R.

[3] = tested on: Atopobium deltae; assay: Fecal microbiota of calves, shotgun metagenomics; type: in vivo; conditions: T1 (W 5), versus placebo calves, score = −log 10(pvalue)*sign(coef)
Method: as §1, §2, §3, §4, §5

[4] = tested on: Ruminococcus bromii; assay: Fecal microbiota of calves, shotgun metagenomics; type: in vivo; conditions: T2 (W 9), versus placebo calves, score = −log 10(pvalue)*sign(coef)
Method: as §1, §2, §3, §4, §5

[5] = tested on: Bacteroides pectinophilus; assay: Fecal microbiota of calves, shotgun metagenomics; type: in vivo; conditions: T2 (W 9), versus placebo calves, score = −log 10(pvalue)*sign(coef)
Method: as §1, §2, §3, §4, §5

[6] = tested on: Eubacterium rectale; assay: Fecal microbiota of calves, shotgun metagenomics; type: in vivo; conditions: T1 (W 5), versus placebo calves, score = −log 10(pvalue)*sign(coef)
Method: as §1, §2, §3, §4, §5

[7] = tested on: Bacteroides coprophilus; assay: Fecal microbiota of calves, shotgun metagenomics; type: in vivo; conditions: T2 (W 9), versus placebo calves, score = −log 10(pvalue)*sign(coef)
Method: as §1, §2, §3, §4, §5

With 2′-fucosyllactose [2′FL] as the substance, how does the Live weight ([1]; W 0 (arrival), mean ± SD) read?
The Live weight was 45.6 ± 2.8 kg.

What about the “Feed conversion ratio (FCR)” value ([1]; W 0-W 2) of the same substance?
Its value is 1.34.

And the Average daily gain ([1]; W 0-W 2, mean ± SD)?
Its Average daily gain is 600.1 ± 155.0 g/day.

And the “Feed conversion ratio (FCR)” value ([1]; W 0-W 6)?
The value was 1.53.

And the “Feed conversion ratio (FCR)” value ([1]; W 0-W 10)?
The value was 2.01.

And the “Feed conversion ratio (FCR)” value ([1]; W 0-W 12)?
Its value is 2.28.

What about the Average daily gain ([1]; W 0-W 12, mean ± SD) of the same substance?
Its Average daily gain is 1099.5 ± 141.7 g/day.

What about the Live weight ([1]; W 2, mean ± SD) of the same substance?
Its Live weight is 54.0 ± 3.3 kg.

And the “Feed conversion ratio (FCR)” value ([1]; W 2-W 6)?
The value was 1.67.

What about the Average daily gain ([1]; W 2-W 6, mean ± SD) of the same substance?
The Average daily gain was 954.9 ± 176.8 g/day.

What about the Live weight ([1]; W 6, mean ± SD) of the same substance?
The Live weight was 80.7 ± 7.1 kg.

What about the “Feed conversion ratio (FCR)” value ([1]; W 6-W 10) of the same substance?
The value was 2.51.

And the Average daily gain ([1]; W 6-W 10, mean ± SD)?
Its Average daily gain is 1267.9 ± 202.2 g/day.

What about the “Feed conversion ratio (FCR)” value ([1]; W 6-W 12) of the same substance?
The value was 2.76.

What about the Live weight ([1]; W 10, mean ± SD) of the same substance?
The Live weight was 116.2 ± 11.0 kg.

And the “Feed conversion ratio (FCR)” value ([1]; W 10-W 12)?
Its value is 3.44.

And the Average daily gain ([1]; W 10-W 12, mean ± SD)?
The Average daily gain was 1484.6 ± 260.7 g/day.

What about the Live weight ([1]; W 12, mean ± SD) of the same substance?
The Live weight was 136.8 ± 12.7 kg.

And the “Average feed intake, CMR” value ([1]; calf milk replacer, 12 weeks trial)?
The value was 42.3 kg.

And the “Average feed intake, Concentrates” value ([1]; concentrates, 12 weeks trial, mean ± SD)?
Its value is 131.6 ± 6.2 kg.

And the “Average feed intake, Corn silage” value ([1]; corn silage, mean ± SD)?
Its value is 14.8 ± 1.3 kg.

And the “Average feed intake, Straw” value ([1]; straw, 12 weeks trial, mean ± SD)?
Its value is 16.0 ± 0.8 kg.

What about the “Significant change in counts per million (cpm) of bacteria species (score)” value (from here on “Significant change in counts per million”) [2] of the same substance?
The value was −1.68.

What about the “Significant change in counts per million” value [3] of the same substance?
The value was −1.44.

And the “Significant change in counts per million” value [4]?
The value was 1.65.

What about the “Significant change in counts per million” value [5] of the same substance?
Its value is 1.35.

What about the “Significant change in counts per million” value [6] of the same substance?
Its value is 1.35.

What about the “Significant change in counts per million” value [7] of the same substance?
Its value is −1.56.
